Patent publication US20230270753A1, “COMBINATIONS OF GABAA ALPHA 5 AGONISTS AND SV2A INHIBITORS AND METHODS OF USING IN THE TREATMENT OF COGNITIVE IMPAIRMENT” (AGENEBIO, INC., priority 2020, published 2023)

Columns and labels:
[1] = following oral administration; cited from earlier work
[2] = tested on: aged-impaired (AI) Long-Evans rats; assay: Morris Water Maze retention trial, levetiracetam (Example 1); assay type: in vivo, rat; details: levetiracetam 5 mg/kg/day i.p.; retention trial 24 hours after last training trial
Method: Six aged-impaired (AI) Long-Evans rats (as characterized above) were tested for their memory of new spatial information in the Morris water maze (MWM), under different drug/control treatment conditions (vehicle control and two different dosage levels of levetiracetam). A retention trial was performed after the training trials, as described below. The MWM apparatus consists of a large, circular pool (diameter 1.53 m; height, 0.58 m) filled with water (27° C.) that is made opaque through the addition of non-toxic pigment or some other substance. In the typical “hidden platform” version of the test, rats are trained to find a camouflaged white escape platform (height, 34.5 cm) that is positioned in the center of one quadrant of the maze about 1.0 cm below the water surface. This platform can be retracted to the bottom of the tank or raised to its normal position from outside the maze during behavioral testing. The location of the platform remains constant from trial to trial. […] The behavior of a rat in the pool is recorded by a camera that is suspended 2.5 m above the center of the pool. […] In the retention trial, the time the AI rats spent swimming in the target quadrant is measured and further plotted as a percentage of total swimming time. […]

For `CC[C@@H](C(N)=O)N1CCCC1=O` [levetiracetam, (2S)-2-(2-oxopyrrolidin-1-yl)butanamide], the “time of peak plasma concentrations” value [1] is given as “about 1 hour” and the “time spent in the target quadrant vs vehicle” value [2] is given as “did not significantly improve”.
